Results: patent US20100061928A1, “LABELLED ANALOGUES OF HALOBENZAMIDES AS RADIOPHARMACEUTICALS” (Institut National De La Sante et De La Recherche Medicale …, priority 2006, published 2010)
Counter-ions that a name gives are not always drawn. Blank lines part the entries; values can stand above or below the compound they belong to.

How the values were obtained:
[1] = Elimination of the molecules: cumulative urinary and faecal excretion 0-72 hours; assay type: in vivo, mouse; conditions: for Faecal elimination 0-72 hours (Faeces) / Urinary and faecal elimination 0-72 hours (Total) / Urinary elimination 0-72 hours (Urine): cumulative excretion 0-72 hours; for Faecal elimination 0-72 hours (Faeces) / Urinary elimination 0-72 hours (Urine): mice in metabolic cages; for Urinary and faecal elimination 0-72 hours (Total): urine + faeces; for elimination kinetics from the body (in words): urine and faeces, up to 72 hours
tumour = experiment: Dosimetry with regard to the tumour (MIRD programme, extrapolated to ^131I); conditions: for Effective period: extrapolated to 131I labelling; for Biological period: from biodistribution data
[2] = system: grafted B16 F0 murine melanoma tumour; experiment: Biodistribution of the ^125I-labelled molecules in the melanoma-bearing mouse (autoradiography of whole-body sections)
[3] = 1 H after i.v. administration, ^125I-labelled compound
[4] = 3 H after i.v. administration, ^125I-labelled compound
[5] = 6 H after i.v. administration, ^125I-labelled compound
[6] = 24 H after i.v. administration, ^125I-labelled compound
[7] = 72 H after i.v. administration, ^125I-labelled compound

SMILES: CCN(CC)CCNC(=O)c1cc2c(I)cccc2s1.Cl [compound 13, N-(2-diethylaminoethyl)-4-iodobenzo[b]thiophene-2-carboxamide hydrochloride]
Faecal elimination 0-72 hours (Faeces) [1]: 46.7%
Urinary and faecal elimination 0-72 hours (Total) [1]: 99.3%
Urinary elimination 0-72 hours (Urine) [1]: 52.6%
elimination route (in words) ([1]; urinary versus faecal, 0-72 hours): about equivalent
elimination kinetics from the body (in words) [1]: complete at 72 hours
Effective period (tumour): 23.5 h
Biological period (tumour): 26.7 hours
Concentration of radioactivity, Ic (intestinal contents), Mean [2, 3]: 71.13 % ID/g
Concentration of radioactivity, Sc (stomach contents), Mean [2, 3]: 20.00 % ID/g
Concentration of radioactivity, blood (measured in the heart cavity), Mean [2, 3]: 1.37 % ID/g
Concentration of radioactivity, brain, Mean [2, 3]: 0.81 % ID/g
Concentration of radioactivity, kidney, Mean [2, 3]: 5.61 % ID/g
Concentration of radioactivity, liver, Mean [2, 3]: 2.21 % ID/g
Concentration of radioactivity, lungs, Mean [2, 3]: 3.69 % ID/g
Concentration of radioactivity, muscle (skeletal muscle), Mean [2, 3]: 0.77 % ID/g
Concentration of radioactivity, spleen, Mean [2, 3]: 3.88 % ID/g
Concentration of radioactivity, thyroid, Mean [2, 3]: 24.03 % ID/g
Concentration of radioactivity, uvea (pigmented tissues of the eye), Mean [2, 3]: 16.09 % ID/g
Concentration of radioactivity, B 16 (tumour), Mean [2, 4]: 9.98 % ID/g
Concentration of radioactivity, GB (gall bladder), Mean [2, 4]: 65.56 % ID/g
Concentration of radioactivity, Ic (intestinal contents), Mean [2, 4]: 73.02 % ID/g
Concentration of radioactivity, Sc (stomach contents), Mean [2, 4]: 5.93 % ID/g
Concentration of radioactivity, liver, Mean [2, 4]: 1.25 % ID/g
Concentration of radioactivity, thyroid, Mean [2, 4]: 67.21 % ID/g
Concentration of radioactivity, uvea (pigmented tissues of the eye), Mean [2, 4]: 19.51 % ID/g
Concentration of radioactivity, B 16 (tumour), Mean [2, 5]: 8.72 % ID/g
Concentration of radioactivity, Ic (intestinal contents), Mean [2, 5]: 37.70 % ID/g
Concentration of radioactivity, Sc (stomach contents), Mean [2, 5]: 18.77 % ID/g
Concentration of radioactivity, thyroid, Mean [2, 5]: 139.12 % ID/g
Concentration of radioactivity, uvea (pigmented tissues of the eye), Mean [2, 5]: 16.29 % ID/g
Concentration of radioactivity, B 16 (tumour), Mean [2, 6]: 7.28 % ID/g
Concentration of radioactivity, thyroid, Mean [2, 6]: 79.82 % ID/g
Concentration of radioactivity, uvea (pigmented tissues of the eye), Mean [2, 6]: 11.06 % ID/g
Concentration of radioactivity, B 16 (tumour), Mean [2, 7]: 1.73 % ID/g
Concentration of radioactivity, uvea (pigmented tissues of the eye), Mean [2, 7]: 9.22 % ID/g

Faecal elimination 0-72 hours (Faeces) [1]: 24.0%
Urinary and faecal elimination 0-72 hours (Total) [1]: 76.6%
Urinary elimination 0-72 hours (Urine) [1]: 52.6%
Effective period (tumour): 7.5 h
Biological period (tumour): 7.8 hours
Concentration of radioactivity, B 16 (tumour), Mean [2, 3]: 2.96 % ID/g
Concentration of radioactivity, Ic (intestinal contents), Mean [2, 3]: 58.60 % ID/g
Concentration of radioactivity, Sc (stomach contents), Mean [2, 3]: 24.51 % ID/g
Concentration of radioactivity, blood (measured in the heart cavity), Mean [2, 3]: 2.20 % ID/g
Concentration of radioactivity, brain, Mean [2, 3]: 0.33 % ID/g
Concentration of radioactivity, kidney, Mean [2, 3]: 7.12 % ID/g
Concentration of radioactivity, liver, Mean [2, 3]: 4.86 % ID/g
Concentration of radioactivity, lungs, Mean [2, 3]: 6.48 % ID/g
Concentration of radioactivity, muscle (skeletal muscle), Mean [2, 3]: 1.10 % ID/g
Concentration of radioactivity, spleen, Mean [2, 3]: 8.16 % ID/g
Concentration of radioactivity, uvea (pigmented tissues of the eye), Mean [2, 3]: 28.30 % ID/g
Concentration of radioactivity, B 16 (tumour), Mean [2, 4]: 5.40 % ID/g
Concentration of radioactivity, Ic (intestinal contents), Mean [2, 4]: 52.06 % ID/g
Concentration of radioactivity, Sc (stomach contents), Mean [2, 4]: 30.71 % ID/g
Concentration of radioactivity, blood (measured in the heart cavity), Mean [2, 4]: 3.93 % ID/g
Concentration of radioactivity, brain, Mean [2, 4]: 0.36 % ID/g
Concentration of radioactivity, kidney, Mean [2, 4]: 5.04 % ID/g
Concentration of radioactivity, liver, Mean [2, 4]: 2.56 % ID/g
Concentration of radioactivity, lungs, Mean [2, 4]: 3.38 % ID/g
Concentration of radioactivity, muscle (skeletal muscle), Mean [2, 4]: 1.30 % ID/g
Concentration of radioactivity, spleen, Mean [2, 4]: 12.67 % ID/g
Concentration of radioactivity, uvea (pigmented tissues of the eye), Mean [2, 4]: 16.60 % ID/g
Concentration of radioactivity, B 16 (tumour), Mean [2, 5]: 9.87 % ID/g
Concentration of radioactivity, Ic (intestinal contents), Mean [2, 5]: 26.14 % ID/g
Concentration of radioactivity, Sc (stomach contents), Mean [2, 5]: 48.21 % ID/g
Concentration of radioactivity, brain, Mean [2, 5]: 0.65 % ID/g
Concentration of radioactivity, kidney, Mean [2, 5]: 4.47 % ID/g
Concentration of radioactivity, lungs, Mean [2, 5]: 4.56 % ID/g
Concentration of radioactivity, uvea (pigmented tissues of the eye), Mean [2, 5]: 22.16 % ID/g
Concentration of radioactivity, B 16 (tumour), Mean [2, 6]: 5.22 % ID/g
Concentration of radioactivity, uvea (pigmented tissues of the eye), Mean [2, 6]: 11.17 % ID/g
Concentration of radioactivity, Sc (stomach contents), Mean [2, 7]: 3.42 % ID/g
Concentration of radioactivity, uvea (pigmented tissues of the eye), Mean [2, 7]: 2.41 % ID/g
SMILES: CCN(CC)CCNC(=O)c1nc2ccccn2c1I [compound 16, N-(2-diethylaminoethyl)-3-iodoimidazo[1,2-a]pyridine-2-carboxamide dihydrochloride]

SMILES: CCN(CC)CCNC(=O)c1nc2ccc(I)cc2[nH]1.Cl.Cl [compound 26, N-(2-diethylaminoethyl)-5-iodobenzimidazole-2-carboxamide dihydrochloride]
Faecal elimination 0-72 hours (Faeces) [1]: 40.7%
Urinary and faecal elimination 0-72 hours (Total) [1]: 57.8%
Urinary elimination 0-72 hours (Urine) [1]: 17.1%
elimination kinetics from the body (in words) [1]: lower elimination
Effective period (tumour): 35.1 h
Biological period (tumour): 42.9 hours
Concentration of radioactivity, B 16 (tumour), Mean [2, 3]: 14.78 % ID/g
Concentration of radioactivity, Ic (intestinal contents), Mean [2, 3]: 105.55 % ID/g
Concentration of radioactivity, Sc (stomach contents), Mean [2, 3]: 24.46 % ID/g
Concentration of radioactivity, blood (measured in the heart cavity), Mean [2, 3]: 3.31 % ID/g
Concentration of radioactivity, kidney, Mean [2, 3]: 6.90 % ID/g
Concentration of radioactivity, liver, Mean [2, 3]: 13.08 % ID/g
Concentration of radioactivity, lungs, Mean [2, 3]: 5.16 % ID/g
Concentration of radioactivity, muscle (skeletal muscle), Mean [2, 3]: 0.55 % ID/g
Concentration of radioactivity, pancreas, Mean [2, 3]: 6.17 % ID/g
Concentration of radioactivity, spleen, Mean [2, 3]: 11.51 % ID/g
Concentration of radioactivity, uvea (pigmented tissues of the eye), Mean [2, 3]: 12.87 % ID/g
Concentration of radioactivity, B 16 (tumour), Mean [2, 4]: 16.13 % ID/g
Concentration of radioactivity, GB (gall bladder), Mean [2, 4]: 160.60 % ID/g
Concentration of radioactivity, Ic (intestinal contents), Mean [2, 4]: 72.05 % ID/g
Concentration of radioactivity, Sc (stomach contents), Mean [2, 4]: 17.98 % ID/g
Concentration of radioactivity, blood (measured in the heart cavity), Mean [2, 4]: 1.33 % ID/g
Concentration of radioactivity, kidney, Mean [2, 4]: 4.57 % ID/g
Concentration of radioactivity, liver, Mean [2, 4]: 7.15 % ID/g
Concentration of radioactivity, lungs, Mean [2, 4]: 3.74 % ID/g
Concentration of radioactivity, thyroid, Mean [2, 4]: 63.44 % ID/g
Concentration of radioactivity, uvea (pigmented tissues of the eye), Mean [2, 4]: 24.40 % ID/g
Concentration of radioactivity, B 16 (tumour), Mean [2, 5]: 9.90 % ID/g
Concentration of radioactivity, GB (gall bladder), Mean [2, 5]: 38.11 % ID/g
Concentration of radioactivity, Ic (intestinal contents), Mean [2, 5]: 95.86 % ID/g
Concentration of radioactivity, Sc (stomach contents), Mean [2, 5]: 8.62 % ID/g
Concentration of radioactivity, liver, Mean [2, 5]: 3.38 % ID/g
Concentration of radioactivity, spleen, Mean [2, 5]: 14.97 % ID/g
Concentration of radioactivity, thyroid, Mean [2, 5]: 34.17 % ID/g
Concentration of radioactivity, uvea (pigmented tissues of the eye), Mean [2, 5]: 10.09 % ID/g
Concentration of radioactivity, B 16 (tumour), Mean [2, 6]: 7.06 % ID/g
Concentration of radioactivity, Ic (intestinal contents), Mean [2, 6]: 3.19 % ID/g
Concentration of radioactivity, Sc (stomach contents), Mean [2, 6]: 2.32 % ID/g
Concentration of radioactivity, thyroid, Mean [2, 6]: 142.88 % ID/g
Concentration of radioactivity, uvea (pigmented tissues of the eye), Mean [2, 6]: 10.44 % ID/g
Concentration of radioactivity, B 16 (tumour), Mean [2, 7]: 4.54 % ID/g
Concentration of radioactivity, thyroid, Mean [2, 7]: 174.73 % ID/g
Concentration of radioactivity, uvea (pigmented tissues of the eye), Mean [2, 7]: 7.26 % ID/g
tumour concentration, times higher than with BZA ([2]; at 72 hours (FIG. 1B)): 6 times
tumour concentration, % of the injected dose per gram of tumour ([2]; from the first hour): 14.8 % ID/g
